The record followed here is patent US12071434B2, “Heterocyclic compound” (Takeda Pharmaceutical Company Limited, priority 2018, dated 2024).

SMILES strings stand for the structures.

This assay has as its target T1, human orexin type 2 receptor (Homo sapiens, UniProt O43614).
T1 construct: expressed in transfected cells
T1 sequence (O43614 1-444): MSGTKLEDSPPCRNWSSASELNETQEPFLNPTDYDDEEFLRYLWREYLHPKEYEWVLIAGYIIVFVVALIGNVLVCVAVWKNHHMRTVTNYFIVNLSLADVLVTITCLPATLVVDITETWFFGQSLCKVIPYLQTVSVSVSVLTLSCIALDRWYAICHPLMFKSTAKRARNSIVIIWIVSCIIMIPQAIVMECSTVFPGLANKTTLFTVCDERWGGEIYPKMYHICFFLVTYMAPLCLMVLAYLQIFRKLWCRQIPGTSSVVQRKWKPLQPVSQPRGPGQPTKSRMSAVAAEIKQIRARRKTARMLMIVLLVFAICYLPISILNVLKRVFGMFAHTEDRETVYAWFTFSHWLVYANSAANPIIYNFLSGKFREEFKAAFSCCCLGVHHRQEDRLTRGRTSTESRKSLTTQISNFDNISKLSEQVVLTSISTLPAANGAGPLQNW
In words: Measurement of orexin type 2 receptor agonist activity (calcium fluorescence, Fluo-4 AM, FDSS) in CHO cells forcibly expressing human OX2 receptor. The format is cell-based. The following applies: test compound 3 μM, DMSO = 0%, orexin A (human) 10 nM = 100%. From the text: To obtain a cell clone stably expressing human orexin type 2 receptor, human orexin type 2 receptor cDNA was inserted into pcDNA3.1(+) plasmid vector (Invitrogen), and a plasmid DNA for expression of human orexin type 2 receptor (pcDNA3.1(+)/hOX2R) was cloned. The plasmid DNA was introduced into CHO-dhfr cell by an electroporation method, and human orexin type 2 receptor expressing clone cells were obtained by limiting dilution method by using G418 drug resistance as a selection marker.
CHO cells forcibly expressing human OX2 receptor were seeded in each well of 384 well black transparent bottom plate (BD Falcon) at 7,500 cells/well, and cultured for one day in a 5% CO2 incubator at 37° C. After removal of the medium in the cell plate, assay buffer A containing a calcium indicator (HBSS (Thermo Fisher Scientific), 20 mM HEPES (Thermo Fisher Scientific), 0.1% BSA (Sigma-Aldrich), 2.5 μg/mL Fluo-4 AM (DOJINDO Chemical), 0.08% Pluronic F127 (DOJINDO Chemical), 1.25 mM probenecid (DOJINDO Chemical)) was added at 30 μL/well. The plate was stood for 30 min in a 5% CO2 incubator at 37° C., and further stood at room temperature for 30 min. A test compound prepared by diluting with assay buffer B (HBSS, 20 mM HEPES, 0.1% BSA) was added at 10 μL/well, and the fluorescence value was measured by FDSSpCELL (Hamamatsu Photonics K.K.) every one sec for 1 min, and thereafter every two sec for 1 min 40 sec. The activity (%) of the test compound was calculated assuming that variation in the fluorescence value when DMSO was added instead of the test compound was 0%, and variation in the fluorescence value when orexin A (human) (PEPTIDE INSTITUTE, INC.) was added at the final concentration of 10 nM was 100%.
With `Cc1ccc2n(c1=O)[C@@H](Cc1csc(-c3ccccc3)n1)[C@@H](NS(C)(=O)=O)CC2` (racemic) [Example 58, rac-N-{(3S,4S)-7-methyl-6-oxo-4-[(2-phenyl-1,3-thiazol-4-yl)methyl]-1,3,4,6-tetrahydro-2H-quinolizin-3-yl}methanesulfonamide], the “0X2R agonist activity (3 μM, %)” value is on record as 92%.
Next, `CC(C)n1cnc2c(c1=O)[C@@H](Cc1cccc(-c3cc(F)cc(F)c3)c1)[C@@H](NS(C)(=O)=O)CC2` (racemic) [Example 67, rac-N-[(5R,6S)-5-[(3′,5′-difluoro[1,1′-biphenyl]-3-yl)methyl]-4-oxo-3-(propan-2-yl)-3,4,5,6,7,8-hexahydroquinazolin-6-yl]methanesulfonamide]: 105%.
For `CC(C)n1cnc2c(c1=O)C(Cc1cccc(-c3cccc(F)c3)c1)C(NS(C)(=O)=O)CC2` [Example 89, rel-N-[(5R,6S)-5-[(3′-fluoro[1,1′-biphenyl]-3-yl)methyl]-4-oxo-3-(propan-2-yl)-3,4,5,6,7,8-hexahydroisoquinazolin-6-yl]methanesulfonamide] the value was 101%.
As for `CC(C)n1cnc2c(c1=O)[C@@H](Cc1cccc(-c3cc(F)cc(F)c3)c1F)[C@@H](NS(=O)(=O)C1(F)CC1)CC2` [Example 182, 1-fluoro-N-{(5R,6S)-4-oxo-3-(propan-2-yl)-5-[(2,3′,5′-trifluoro[1,1′-biphenyl]-3-yl)methyl]-3,4,5,6,7,8-hexahydroquinazolin-6-yl}cyclopropane-1-sulfonamide], the “0X2R agonist activity (3 μM, %)” value worked out at 101%.
Regarding `CS(=O)(=O)N[C@H]1CCc2ccc(Cl)c(=O)n2[C@H]1Cc1cccc(-c2ccccc2)c1` (racemic) [Example 15, rac-N-{(3S,4S)-4-[([1,1′-biphenyl]-3-yl)methyl]-7-chloro-6-oxo-1,3,4,6-tetrahydro-2H-quinolizin-3-yl}methanesulfonamide], the “0X2R agonist activity (3 μM, %)” value came out at 106%.
For `CN(C)c1ccc2n(c1=O)[C@@H](Cc1cccc(-c3ccccc3)c1)[C@@H](NS(C)(=O)=O)CC2` (racemic) [Example 31, rac-N-[(3S,4S)-4-[([1,1′-biphenyl]-3-yl)methyl]-7-(dimethylamino)-6-oxo-1,3,4,6-tetrahydro-2H-quinolizin-3-yl]methanesulfonamide] the value was 100%; for `CC(C)N1CNC2=C(C1=O)[C@@H](Cc1csc(-c3ccccc3F)n1)[C@@H](NS(=O)(=O)C1(F)CC1)CC2` (relative stereo) [Example 157, rac-1-fluoro-N-[(5R,6S)-5-{[2-(2-fluorophenyl)-1,3-thiazol-4-yl]methyl}-4-oxo-3-(propan-2-yl)-1,2,3,4,5,6,7,8-octahydroquinazolin-6-yl]cyclopropane-1-sulfonamide], 99%; for `CCS(=O)(=O)NC1CCc2ccc(C)c(=O)n2C1Cc1cccc(-c2ccccc2)c1` (racemic) [Example 11, rac-N-{(3S,4S)-4-[([(1,1′-biphenyl]-3-yl)methyl]-7-methyl-6-oxo-1,3,4,6-tetrahydro-2H-quinolizin-3-yl}ethanesulfonamide], 106%.
For the molecule `CS(=O)(=O)N[C@H]1CCc2ccc(C#N)c(=O)n2[C@H]1Cc1cccc(-c2ccccc2)c1` (racemic) [Example 28, rac-N-{(3S,4S)-4-[([1,1′-biphenyl]-3-yl)methyl]-7-cyano-6-oxo-1,3,4,6-tetrahydro-2H-quinolizin-3-yl}methanesulfonamide], the “0X2R agonist activity (3 μM, %)” value is on record as 97%.
For `CC(C)n1c(=O)c2c(n1C)CCC(NS(C)(=O)=O)C2Cc1cccc(-c2ccccc2)c1` [Example 208, rel-N-[(4aR,5S)-4-[([1,1′-biphenyl]-3-yl)methyl]-1-methyl-3-oxo-2-(propan-2-yl)-2,3,4,5,6,7-hexahydro-1H-indazol-5-yl]methanesulfonamide] the value was 95%; for `CC(C)n1cnc2c(c1=O)[C@@H](Cc1cccc(-c3ccccc3)c1)[C@@H](NS(=O)(=O)C1CC1)CC2` (racemic) [Example 134, rac-N-[(5R,6S)-5-[([1,1′-biphenyl]-3-yl)methyl]-4-oxo-3-(propan-2-yl)-3,4,5,6,7,8-hexahydroquinazolin-6-yl]cyclopropanesulfonamide], 111%.
Take `CCn1ccc2c(c1=O)[C@@H](Cc1cccc(-c3cccc(F)c3F)c1)[C@@H](NS(C)(=O)=O)CC2` (racemic) [Example 124, rac-N-{(7S,8R)-8-[(2′,3′-difluoro[1,1′-biphenyl]-3-yl)methyl]-2-ethyl-1-oxo-1,2,5,6,7,8-hexahydroisoquinolin-7-yl}methanesulfonamide]: the “0X2R agonist activity (3 μM, %)” value was found to be 105%.
For `CCS(=O)(=O)NC1CCc2c(C)nn(C)c(=O)c2C1Cc1cccc(-c2ccccc2)c1` (racemic) [Example 97, rac-N-{(5R,6S)-5-[([1,1′-biphenyl]-3-yl)methyl]-1,3-dimethyl-4-oxo-3,4,5,6,7,8-hexahydrophthlalazin-6-yl}ethanesulfonamide] the value was 82%; for `Cc1ccc2n(c1=O)[C@@H](Cc1cccc(-c3cc(F)cc(F)c3)n1)[C@@H](NS(C)(=O)=O)CC2` (racemic) [Example 60, rac-N-[(3S,4S)-4-{[6-(3,5-difluorophenyl)pyridin-2-yl]methyl}-7-methyl-6-oxo-1,3,4,6-tetrahydro-2H-quinolizin-3-yl]methanesulfonamide], 83%.
For `CC(C)n1cnc2c(c1=O)C(Cc1cccc(-c3ccccc3)c1)C(NS(=O)(=O)C1(F)CC1)CC2` (stereo not drawn) [Example 185, rel-N-{5-[([1,1′-biphenyl]-3-yl)methyl]-4-oxo-3-(propan-2-yl)-3,4,5,6,7,8-hexahydroquinazolin-6-yl}-1-fluorocyclopropane-1-sulfonamide] the value was 95%.
Next, `Cn1cc2n(c1=O)[C@@H](Cc1cccc(-c3cc(F)cc(F)c3)c1F)[C@@H](NS(C)(=O)=O)CC2` (racemic) [Example 209, rac-N-{(5S,6S)-2-methyl-3-oxo-5-[(2,3′,5′-trifluoro[1,1′-biphenyl]-3-yl)methyl]-2,3,5,6,7,8-hexahydroimidazo[1,5-a]pyridin-6-yl}methanesulfonamide]: 74%.
`CC(C)n1ccc2c(c1=O)[C@@H](Cc1cccc(-c3ccccc3)n1)[C@@H](NS(C)(=O)=O)CC2` (racemic) [Example 148, rac-N-[(7S,8R)-1-oxo-8-[(6-phenylpyridin-2-yl)methyl]-2-(propan-2-yl)-1,2,5,6,7,8-hexahydroisoquinolin-7-yl]methanesulfonamide]: the “0X2R agonist activity (3 μM, %)” value worked out at 104%.
For the molecule `CC(C)n1cnc2c(c1=O)[C@@H](Cc1ccc(F)c(-c3ccccc3)c1)[C@@H](NS(C)(=O)=O)CC2` (relative stereo) [Example 150, rel-N-[(5R,6S)-5-[(6-fluoro[1,1′-biphenyl]-3-yl)methyl]-4-oxo-3-(propan-2-yl)-3,4,5,6,7,8-hexahydroquinazolin-6-yl]methanesulfonamide], the “0X2R agonist activity (3 μM, %)” value amounted to 98%.
As to `Cc1nc2c(c(=O)n1C(C)C)[C@@H](Cc1cccc(-c3ccccc3)c1)[C@@H](NS(C)(=O)=O)CC2` (racemic) [Example 70, rac-N-{(5R,6S)-5-[([1,1′-biphenyl]-3-yl)methyl]-2-methyl-4-oxo-3-(propan-2-yl)-3,4,5,6,7,8-hexahydroquinazolin-6-yl}methanesulfonamide], the “0X2R agonist activity (3 μM, %)” value was determined as 97%.
Next, `CC(C)n1cnc2c(c1=O)C(Cc1csc(-c3ccccc3)n1)C(NS(=O)(=O)C1(F)CC1)CC2` (stereo not drawn) [Example 194, rel-1-fluoro-N-{4-oxo-5-[(2-phenyl-1,3-thiazol-4-yl)methyl]-3-(propan-2-yl)-3,4,5,6,7,8-hexahydroquinazolin-6-yl}cyclopropane-1-sulfonamide]: 91%.
Consider `CN1CC[C@@H]2CC[C@H](NS(C)(=O)=O)[C@H](Cc3cccc(-c4ccccc4)c3)N2C1=O` (racemic) [Example 62, rac-N-{(4aS,7S,8S)-8-[([1,1′-biphenyl]-3-yl)methyl]-2-methyl-1-oxooctahydro-1H-pyrido[1,2-c]pyrimidin-7-yl}methanesulfonamide], for which the “0X2R agonist activity (3 μM, %)” value worked out at 92%.
